Measurements taken from patent US9835633B1, “Compositions and methods for identifying agents for treating apoE-related diseases” (The J. David Gladstone Institutes, priority 2015, dated 2017).

Each molecule was assayed on NSE-apoE4 primary neurons (assay: apoE fragmentation in NSE-apoE4 primary neurons (western blot)). Conditions: NSE-apoE4 primary neurons treated with compound changing Golgi pH or calcium levels.
Format: cell-based, mouse
Experimental: To confirm that PCSK1 and PCSK2 actually contribute to neuronal cleavage of apoE observed in NSE-apoE4 primary neurons, NSE-apoE4 primary neurons were treated with lentivirus encoding either PCSK1 shRNA or PCSK2 shRNA to decrease the endogenous PCSK1 or PCSK2 levels.
Activity of both PCSK1 and PCSK2 is pH and calcium dependent. The optimum pH for PCSK1 and PCSK2 was acidic (pH 6.0 for PCSK1, pH 5.0 for PCSK2). Their activities were enriched in Golgi/trans-Golgi in neurons, which have an acidic environment. Based on this knowledge, it was hypothesized that changing the Golgi pH or calcium levels in neurons would affect PCSK1/PCSK2 activity and further regulate apoE fragmentation. To test this idea, NSE-apoE4 primary neurons were treated with Bafilomycin A, a compound that can increase Golgi pH, or Thapsigargin/2-APB, which can affect the calcium concentration in different cellular compartments.
PCSK1/PCSK2 generated similar apoE fragmentation patterns in N2A-apoE4 cells compared to NSE-apoE4 primary neurons. To determine whether PCSK1/PCSK2-generated apoE fragments are the same as those generated endogenously, lysates from N2A-apoE4 cells overexpressing either PCSK1 or PCSK2, lysates from NSE-apoE4 primary neurons, and the mixture of these two lysates, were tested. ApoE fragmentation was detected by western blot.
For `NCCOB(c1ccccc1)c1ccccc1` [2-APB], the “apoE fragmentation after compound treatment” value (shortened to “apoE fragmentation”) was “decrease of apoE fragmentation”.
In the case of `CO/C1=C\C(C)=C\[C@@H](C)[C@@H](O)[C@@H](C)C/C(C)=C/C=C/[C@H](OC)[C@@H]([C@@H](C)[C@@H](O)[C@H](C)[C@@]2(O)C[C@@H](O)[C@H](C)[C@@H](C(C)C)O2)OC1=O` [Bafilomycin A], the “apoE fragmentation” value is reported as “decrease of apoE fragmentation”.
`C/C=C(/C)C(=O)O[C@H]1C(C)=C2[C@H]([C@@H]1OC(=O)CCCCCCC)[C@@](C)(OC(C)=O)C[C@H](OC(=O)CCC)[C@@]1(O)[C@H]2OC(=O)[C@@]1(C)O` [Thapsigargin] was tested, and the “apoE fragmentation” value was “decrease of apoE fragmentation”.
